Measured values reported in US12696900B2, “Crop enhancement” (SYNGENTA CROP PROTECTION AG, priority 2020, dated 2026).

What was measured:
[1] = tested on: Corn seeds (var. NK Falkone); test: Corn germination test (24 well plates, kinetic analysis of germination); type: in vivo; settings: for Plateau of Germination (total percentage of germinated seeds), Sign. / Time taken to reach 50% germination of corn, Sign. / Uniformity of Germination (slope of the curve), Sign.: significance vs untreated, p<0.05, ns=not significant; for Plateau of Germination (total percentage of germinated seeds), total % of germinated seeds / Time taken to reach 50% germination of corn, Relative T50 / Uniformity of Germination (slope of the curve), Relative slope: untreated = 100
Method: Corn seeds (var. NK Falkone, Syngenta Seeds SAS, St. Sauveur, France) were sorted by size using a sieve to eliminate round seeds. The corn seeds were placed in 24 well plates (1 seed per well; each plate was considered as one experimental unit or replicate). Germination was initiated by the addition of 250 μl of distilled water containing 0.5% dimethyl sulfoxide (DMSO) to each well (with isocycloseram present at a concentration of either 1, 5, 25 or 125 μM). 8 replicates (i.e. 8 plates) were used for each treatment characterisation. The plates were sealed using seal foil (Polyolefin Art. Nr. 900320) from HJ-BIOANALYTIK. All plates were placed in a climatic chamber at either 15° C. or 23° C., with 60% Relative Humidity. The experiment was laid out in a completely randomized design. Germination was followed over time by taking photographs at different time points. Image analysis was performed automatically with a macro which was developed using the Image J software. A kinetic analysis of germination was carried out by fitting a trend curve. Three parameters were calculated from the trend curve: the T50 (time taken for 50% germination; related to speed of germination); the slope of the curve (the uniformity of germination) and the plateau (the total percentage of germinated seeds). […] The results are expressed in terms of percentage in comparison to the control (untreated seeds) for each temperature group respectively. The results were analysed statistically to highlight significant differences (p<0.05). (Key: Sign.=significance; ns=not significant)
All three parameters have a high agronomical relevance. Significant differences between treated seeds and untreated control are given at p<0.05 (Anova). T50 corresponds to the time needed for half of the seed population to germinate; lower values indicate faster germination. Slope indicates how synchronous the germination of the seed population is; values greater than 100 indicate a steeper curve. The steeper the curve, the better and more uniform the germination is. […] At the two highest rates, the speed of germination (T50) was faster at both temperatures, indicating a positive impact on germination speed.

[2] = tested on: Wheat seeds (winter wheat variety Syllon); test: Wheat germination test under increased salinity (salt stress); type: in vivo; settings: for Time taken to reach 50% germination of wheat, Sign. / Time taken to reach 50% germination of wheat, Relative T50: increased salinity, 12.5 mM NaCl solution, 23° C.; for Time taken to reach 50% germination of wheat, Sign.: significance vs untreated, p<0.05; for Time taken to reach 50% germination of wheat, Relative T50: untreated = 100
Method: Wheat seeds (winter wheat variety Syllon, Syngenta Seeds) were placed in 24 well plates (1 seed per well, each plate was considered as one experimental unit or replicate). […] Subsequently, a salt solution was prepared at this concentration and spiked with the test compound at different rates as shown below in Table 3, and the germination test was repeated under salt stress. Eight replicates (i.e. 8 plates) were used for each treatment. Plates were sealed with seal foil (Polyolefin Art. Nr. 900320) from HJ-BIOANALYTIK. All plates were placed in a climatic chamber at 23° C. with 70% Relative Humidity. The experiment was laid out in a completely randomized design. Germination was followed over time by taking photographs at different time points. Image analysis was performed automatically with a macro which was developed using the Image J software. A kinetic analysis of germination was carried out by fitting a trend curve. Three parameters were calculated from the trend curve: the T50 (time taken for 50% germination; speed of germination); the slope of the curve (the uniformity of germination) and the plateau (the total percentage of germinated seeds). […] The results are expressed in terms of percentage in comparison to the check (untreated seeds) and the results are analysed statistically to highlight significant differences (p<0.05). (Key: Sign.=significance)
T50 corresponds to the time needed for half of the seed population to germinate and is a germination parameter of high agronomical relevance. Significant differences between treated seeds and untreated control are given at p<0.05 (Anova). Lower values indicate faster germination.

[3] = 15° C. (cold conditions), isocycloseram 1 μM
[4] = 15° C. (cold conditions), isocycloseram 5 μM
[5] = 15° C. (cold conditions), isocycloseram 25 μM
[6] = 15° C. (cold conditions), isocycloseram 125 μM
[7] = 23° C. (normal conditions), isocycloseram 1 μM
[8] = 23° C. (normal conditions), isocycloseram 5 μM
[9] = 23° C. (normal conditions), isocycloseram 25 μM
[10] = 23° C. (normal conditions), isocycloseram 125 μM

CCN1OCC(NC(=O)c2ccc(C3=NOC(c4cc(Cl)c(F)c(Cl)c4)(C(F)(F)F)C3)cc2C)C1=O (stereo not shown) [Isocycloseram, isocycloseram]
Plateau of Germination (total percentage of germinated seeds), Sign. [1, 3]: ns | Time taken to reach 50% germination of corn, Sign. [1, 3]: ns | Uniformity of Germination (slope of the curve), Sign. [1, 3]: ns | Plateau of Germination (total percentage of germinated seeds), total % of germinated seeds [1, 3]: 103 percentage in comparison to the control | Time taken to reach 50% germination of corn, Relative T50 [1, 3]: 99.67 percentage in comparison to the control | Uniformity of Germination (slope of the curve), Relative slope [1, 3]: 100 percentage in comparison to the control | Plateau of Germination (total percentage of germinated seeds), Sign. [1, 4]: higher | Time taken to reach 50% germination of corn, Sign. [1, 4]: ns | Uniformity of Germination (slope of the curve), Sign. [1, 4]: ns | Plateau of Germination (total percentage of germinated seeds), total % of germinated seeds [1, 4]: 105 percentage in comparison to the control | Time taken to reach 50% germination of corn, Relative T50 [1, 4]: 101.73 percentage in comparison to the control | Uniformity of Germination (slope of the curve), Relative slope [1, 4]: 98 percentage in comparison to the control | Plateau of Germination (total percentage of germinated seeds), Sign. [1, 5]: higher | Time taken to reach 50% germination of corn, Sign. [1, 5]: Faster | Uniformity of Germination (slope of the curve), Sign. [1, 5]: more | Plateau of Germination (total percentage of germinated seeds), total % of germinated seeds [1, 5]: 106 percentage in comparison to the control | Time taken to reach 50% germination of corn, Relative T50 [1, 5]: 93.1 percentage in comparison to the control | Uniformity of Germination (slope of the curve), Relative slope [1, 5]: 233 percentage in comparison to the control | Plateau of Germination (total percentage of germinated seeds), Sign. [1, 6]: higher | Time taken to reach 50% germination of corn, Sign. [1, 6]: Faster | Uniformity of Germination (slope of the curve), Sign. [1, 6]: more | Plateau of Germination (total percentage of germinated seeds), total % of germinated seeds [1, 6]: 105 percentage in comparison to the control | Time taken to reach 50% germination of corn, Relative T50 [1, 6]: 90.61 percentage in comparison to the control | Uniformity of Germination (slope of the curve), Relative slope [1, 6]: 191 percentage in comparison to the control | Plateau of Germination (total percentage of germinated seeds), Sign. [1, 7]: ns | Time taken to reach 50% germination of corn, Sign. [1, 7]: Slower | Uniformity of Germination (slope of the curve), Sign. [1, 7]: less | Plateau of Germination (total percentage of germinated seeds), total % of germinated seeds [1, 7]: 103.63 percentage in comparison to the control | Time taken to reach 50% germination of corn, Relative T50 [1, 7]: 107.32 percentage in comparison to the control | Uniformity of Germination (slope of the curve), Relative slope [1, 7]: 80.22 percentage in comparison to the control | Plateau of Germination (total percentage of germinated seeds), Sign. [1, 8]: ns | Time taken to reach 50% germination of corn, Sign. [1, 8]: Slower | Uniformity of Germination (slope of the curve), Sign. [1, 8]: ns | Plateau of Germination (total percentage of germinated seeds), total % of germinated seeds [1, 8]: 103.63 percentage in comparison to the control | Time taken to reach 50% germination of corn, Relative T50 [1, 8]: 105.17 percentage in comparison to the control | Uniformity of Germination (slope of the curve), Relative slope [1, 8]: 93.8 percentage in comparison to the control | Plateau of Germination (total percentage of germinated seeds), Sign. [1, 9]: higher | Time taken to reach 50% germination of corn, Sign. [1, 9]: Faster | Uniformity of Germination (slope of the curve), Sign. [1, 9]: more | Plateau of Germination (total percentage of germinated seeds), total % of germinated seeds [1, 9]: 105.39 percentage in comparison to the control | Time taken to reach 50% germination of corn, Relative T50 [1, 9]: 95.22 percentage in comparison to the control | Uniformity of Germination (slope of the curve), Relative slope [1, 9]: 133.81 percentage in comparison to the control | Plateau of Germination (total percentage of germinated seeds), Sign. [1, 10]: ns | Time taken to reach 50% germination of corn, Sign. [1, 10]: Faster | Uniformity of Germination (slope of the curve), Sign. [1, 10]: more | Plateau of Germination (total percentage of germinated seeds), total % of germinated seeds [1, 10]: 100.7 percentage in comparison to the control | Time taken to reach 50% germination of corn, Relative T50 [1, 10]: 92.47 percentage in comparison to the control | Uniformity of Germination (slope of the curve), Relative slope [1, 10]: 176.64 percentage in comparison to the control | changes in germination rate and uniformity (corn) ([1]; isocycloseram 1, 5, 25 and 125 μM, 15° C. or 23° C., especially under the colder conditions and higher concentrations): significant changes in germination rate and uniformity | effect on corn seed germination kinetics ([1]; low temperature (15° C.)): consistent effect | effect on wheat seed germination kinetics ([2]; increased salinity (salt stress)): consistent effect | Time taken to reach 50% germination of wheat, Sign. ([2]; isocycloseram 1 μM): Faster | Time taken to reach 50% germination of wheat, Relative T50 ([2]; isocycloseram 1 μM): 95.27 percentage in comparison to the check | Time taken to reach 50% germination of wheat, Sign. ([2]; isocycloseram 5 μM): Faster | Time taken to reach 50% germination of wheat, Relative T50 ([2]; isocycloseram 5 μM): 94.70 percentage in comparison to the check | Time taken to reach 50% germination of wheat, Sign. ([2]; isocycloseram 25 μM): Faster | Time taken to reach 50% germination of wheat, Relative T50 ([2]; isocycloseram 25 μM): 93.07 percentage in comparison to the check | changes in germination speed (wheat) ([2]; isocycloseram 1, 5, and 25 μM, salt stress, 12.5 mM NaCl): significant changes in germination speed
